Results on two compounds are retold here after ChEMBL document CHEMBL4118246, “Discovery and evaluation of 3,5-disubstituted indole derivatives as Pim kinase inhibitors” (Bioorg Med Chem Lett, 2018).

Usually IC50 stands for the midpoint of a concentration-inhibition curve.

For assay [1], the system named is HepG2. In words: Cell cycle arrest in human HepG2 cells assessed as accumulation at sub-G1 phase at 10 uM by FACS analysis relative to control. The format is functional. For orientation: In flow cytometry, cells or beads pass a laser one at a time.
Assay [2] concerns HepG2. In words: Cell cycle arrest in human HepG2 cells assessed as accumulation at G2/M phase at 1 uM by FACS analysis relative to control. It is filed as functional.
The next assay has as its system MV4-11. Description: Growth inhibition of human MV4-11 cells. The format is functional, cell-based.
Assay [3] has as its system HepG2. Description: Cell cycle arrest in human HepG2 cells assessed as accumulation at sub-G1 phase at 1 uM by FACS analysis relative to control. The format is functional.
Assay [4] relates to HepG2. In words: Cell cycle arrest in human HepG2 cells assessed as accumulation at S phase at 1 uM by FACS analysis relative to control. The format is functional.
The target of assay [5] is Serine/threonine-protein kinase pim-1 (Homo sapiens, UniProt P11309).
Sequence of Serine/threonine-protein kinase pim-1 (P11309 whole entry): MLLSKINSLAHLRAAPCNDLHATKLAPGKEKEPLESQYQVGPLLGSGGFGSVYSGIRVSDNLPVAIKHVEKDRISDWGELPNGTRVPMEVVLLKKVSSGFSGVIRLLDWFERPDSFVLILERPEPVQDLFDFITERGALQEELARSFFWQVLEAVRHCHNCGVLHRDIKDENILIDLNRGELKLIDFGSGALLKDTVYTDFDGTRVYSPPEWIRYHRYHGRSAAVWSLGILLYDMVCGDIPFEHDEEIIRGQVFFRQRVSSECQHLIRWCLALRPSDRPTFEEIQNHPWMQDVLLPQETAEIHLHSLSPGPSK
Description: Inhibition of PIM1 (unknown origin)
Assay [6] deals with HepG2. Description: Cell cycle arrest in human HepG2 cells assessed as accumulation at G2/M phase at 10 uM by FACS analysis relative to control. The format is functional.
For assay [7], the system named is HepG2. Description: Cell cycle arrest in human HepG2 cells assessed as accumulation at G0/G1 phase at 1 uM by FACS analysis relative to control. The format is functional.
The target in assay [8] is Serine/threonine-protein kinase pim-2 (Homo sapiens, UniProt Q9P1W9). In words: Inhibition of PIM2 (unknown origin).
Sequence of Serine/threonine-protein kinase pim-2 (Q9P1W9 whole entry): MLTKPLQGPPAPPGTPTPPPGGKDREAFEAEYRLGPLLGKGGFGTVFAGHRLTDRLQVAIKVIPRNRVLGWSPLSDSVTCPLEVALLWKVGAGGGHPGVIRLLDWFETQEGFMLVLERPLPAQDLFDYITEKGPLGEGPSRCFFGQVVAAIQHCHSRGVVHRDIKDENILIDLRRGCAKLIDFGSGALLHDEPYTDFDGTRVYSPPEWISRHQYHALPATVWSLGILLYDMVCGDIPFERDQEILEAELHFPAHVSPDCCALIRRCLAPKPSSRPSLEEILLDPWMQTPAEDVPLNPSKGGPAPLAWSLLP
The target of assay [9] is Serine/threonine-protein kinase pim-3 (Homo sapiens, UniProt Q86V86). Description: Inhibition of PIM3 (unknown origin).
Assay [10] relates to HepG2. In words: Cell cycle arrest in human HepG2 cells assessed as accumulation at S phase at 10 uM by FACS analysis relative to control. It is filed as functional.
Assay [11] relates to HepG2. In words: Cell cycle arrest in human HepG2 cells assessed as accumulation at G0/G1 phase at 10 uM by FACS analysis relative to control. It is filed as functional.

As to `CN(C)CCNc1cncc(-c2ccc3[nH]cc(-c4ccc(S(C)(=O)=O)cc4)c3c2)n1`, the Activity in the assay on HepG2 [1] is listed as 2.7%; in the assay on HepG2 [2], 19.3%; in the assay on HepG2 [3] it was 1.6%; with HepG2 [4], 20.7%; in the assay with HepG2 [6], 17.9%; in the assay with HepG2 [7], 51.7%. Besides, the figures for the Activity in the assay with HepG2 [10] and with HepG2 [11] were 20.9% and 52.5%, respectively. The IC50 with MV4-11 is 7.3 µM; in assay [5], 21 nM; in [8] it was 2160 nM; in assay [9] it was 50 nM.

For `CN(C)CCNc1cncc(-c2ccc3[nH]cc(-c4cccc(F)c4F)c3c2)n1`, the Activity is on record as 74.2% with HepG2 [1]; 16.2% with HepG2 [2]; 2.8% in the assay with HepG2 [3]; 19.2% in the assay on HepG2 [4]; 0% in the assay on HepG2 [6]; 56% in the assay on HepG2 [7]. The Activity was determined as 3.2% in the assay on HepG2 [10] and 22.6% with HepG2 [11]. The IC50 in the assay with MV4-11 is 2.6 µM; in assay [5], 9 nM; in [8], 645 nM; in assay [9], 22 nM.
